Results taken from patent US12209080B2, “Polymorphic forms of kinase inhibitor compound, pharmaceutical composition containing same, preparation method therefor and use thereof” (EQUINOX SCIENCES, LLC, priority 2016, dated 2025).
Converted amounts (≈) assume the structure as drawn. Like-named read-outs stand apart in the source and are kept apart here.

What was measured:
[1] = Stability of the crystalline forms (HPLC, XRD, DSC); type: physicochemical; settings: for HPLC Maximum single impurity %: retention time (min) in brackets; for crystalline form and melting point by XRD and DSC: sealed 80° C. 24 hours, open dish 25° C./60% RH and 40° C./75% RH for 7 days
Experimental: Experimental conditions: the samples were sealed and placed at 80° C. for 24 hours, and then placed in an open dish at 25° C./60% RH (relative humidity) and 40° C./75% RH for 7 days. Detection method: HPLC (only for the starting samples and samples placed at 80° C. for 24 hours), XRD, DSC.
In addition, the long-term stabilities of the crystalline form 1 for 12 months, 24 months, 36 months, and 48 months at 25° C./60% RH were also investigated.

[2] = Thermodynamic stability experiment in solvents at 60° C. (XRD); type: physicochemical; settings: one day
Experimental: The crystalline form 1, crystalline form 2, crystalline form 3 and crystalline form 7 of the compound of formula I were mixed with acetone, ethyl acetate, methanol, water and tetrahydrofuran respectively, and then kept at 60° C. for one day for the investigation of the thermodynamic stability of each crystalline form. Insoluble solid was recovered by filtration and analyzed by XRD. Analysis conditions: Shimadzu XRD-6000, CuK source (1.54056 A) 40 kV, 30 mA; detection angle: 5-50°, speed: 5°/min.

[3] = Solubility determination in water by HPLC; type: physicochemical; settings: suspension in water, 25° C.
Experimental: HPLC detection was performed using the crystalline form 1 as a standard, with its concentration of 204.2 μg*mL^−1 and its content set as 100%, and the detection was performed 7 times. The average peak area was 159.691 mAU*min (retention time was 7.4 min).

[4] = Dynamic vapor sorption (DVS) / moisture absorption; type: physicochemical
Experimental: (4) Dynamic Water Adsorption (DVS), TA Instruments Q5000 TGA; controlling software: Thermal Advantage; analysis software: Universal Analysis; sample plate: platinum crucible; amount of the sample to be detected: 1-10 mg; protective gas: nitrogen; gas flow fate: 10 mL/min; detection method: equilibration at 25° C., humidity: 0%, isothermal treatment: 90 min, weight change to be detected: from 0% RH to 80% RH;
(§1) The moisture content, solubility and dissolution rate of the crystalline forms 1 and 2 were detected using the methods described above. The results are shown in Table 21, which indicate that the solubility, dissolution, and moisture content (total pharmaceutical properties) of the crystalline form 1 are higher than that of the crystalline form 2. Moreover, the crystalline forms 1 and 2 have the highest solubility in methanol.

[5] = Solubility of crystalline forms 1 and 2 in various media; type: physicochemical
From the text: as §1

[6] = Dissolution rate of crystalline forms 1 and 2; type: physicochemical
From the text: as §1

[7] = Pharmacokinetic experiment, oral administration; type: in vivo, Sprague Dawley rats; settings: rat, 10 mg/kg, suspension in 0.5% CMC
Experimental: Twelve Sprague Dawley rats with weight of 230-250 g were randomly divided into 2 groups, wherein each group consisted of 3 males and 3 females. Crystalline forms 1 and 2 were separately prepared as suspensions in 0.5% carboxymethylcellulose (CMC). The rats were fasted for 12 hours with free access to water and then orally administered at a dose of 10 mg/kg. Blood samples (0.2-0.3 ml) before and after 15, 30, 60, 120, 240, 360, 480, 720, 1440 minutes of the oral administration were collected in heparin anticoagulation tubes, which were then centrifuged to obtain plasma. The plasma was stored at −20° C., followed by analysis using API 4000 MS in conjunction with a HPLC unit. The pharmacokinetic parameters Cmax and AUC were calculated according to the determined plasma concentrations and summarized in Table 22.

[8] = Tissue accumulation experiment in tumor-bearing mice; type: in vivo, BALB/cA nude mice; set-up: content in Tumor / content in Liver / content in Kidney / content in Heart / content in Lung / content in Muscle / content in Brain: unit not given here; settings: 40 mg/kg for 21 days (crystalline form 1 twice a day, sunitinib once a day); 4 hours after administration on day 22
Experimental: Human colon cancer H-29 cells were implanted into the armpits of BALB/cA nude mice. Seven days after the implantation of H-29 cells, 8 female mice were administered with the crystalline form 1 (twice a day) at 40 mg/kg or sunitinib at 40 mg/kg (once a day). The drug administration was continuous for 21 days. Plasma, tissue and tumor samples were collected for analysis 4 hours after the administration on the 22nd day morning.

[9] = acetone, ethyl acetate, methanol or water, conversion not complete in methanol

## Cc1[nH]c(/C=C2\C(=O)Nc3ccc(F)cc32)c(C)c1C(=O)N[C@H]1CCN(C(=O)N(C)C)C1 [crystalline form 3, 5-[5-fluoro-2-oxo-1,2-dihydro-indole-(3Z)-ylidenemethyl]-2,4-dimethyl-1H-pyrrole-3-carboxylic acid ((S)-1-dimethylcarbamoyl-pyrrolidin-3-yl)-amide]
[1]; 0 day (starting sample)
  HPLC Purity %: 99.14%
  HPLC Maximum single impurity %: 0.76 (4.73) %
[1]
  crystalline form and melting point by XRD and DSC: substantially unchanged
[1]; sealed, 80° C./24 h
  HPLC Purity %: 98.32%
  HPLC Maximum single impurity %: 1.58 (4.73) %
[2]; [9]
  crystalline form recovered (XRD): converted to crystalline form 2
[2]; tetrahydrofuran (THF)
  crystalline form recovered (XRD): to crystalline form 3
[3]; 0.5 hours
  concentration (solubility in water): 0.58 µg/mL
[3]; 4 hours
  concentration (solubility in water): 0.77 µg/mL

## Cc1[nH]c(/C=C2\C(=O)Nc3ccc(F)cc32)c(C)c1C(=O)N[C@H]1CCN(C(=O)N(C)C)C1 [crystalline form 5, 5-[5-fluoro-2-oxo-1,2-dihydro-indole-(3Z)-ylidenemethyl]-2,4-dimethyl-1H-pyrrole-3-carboxylic acid ((S)-1-dimethylcarbamoyl-pyrrolidin-3-yl)-amide]
[1]; 0 day (starting sample)
  HPLC Purity %: 99.86%
  HPLC Maximum single impurity %: 0.05 (8.82) %
[1]
  crystalline form and melting point by XRD and DSC: substantially unchanged
[1]; sealed, 80° C./24 h
  HPLC Purity %: 98.80%
  HPLC Maximum single impurity %: 1.10 (4.73) %
[3]; 0.5 hours
  concentration (solubility in water): 1.66 µg/mL
[3]; 4 hours
  concentration (solubility in water): 0.42 µg/mL

## Cc1[nH]c(/C=C2\C(=O)Nc3ccc(F)cc32)c(C)c1C(=O)N[C@H]1CCN(C(=O)N(C)C)C1 [crystalline form 2, 5-[5-fluoro-2-oxo-1,2-dihydro-indole-(3Z)-ylidenemethyl]-2,4-dimethyl-1H-pyrrole-3-carboxylic acid ((S)-1-dimethylcarbamoyl-pyrrolidin-3-yl)-amide]
[4]; RH 50%
  Moisture absorption: 0.064%
[4]; RH 80%
  Moisture absorption: 0.112%
[1]; 0 day (starting sample)
  HPLC Purity %: 97.76%
  HPLC Maximum single impurity %: 2.15 (4.73) %
[1]
  crystalline form and melting point by XRD and DSC: substantially unchanged
[1]; sealed, 80° C./24 h
  HPLC Purity %: 98.95%
  HPLC Maximum single impurity %: 0.96 (4.73) %
[2]; [9]
  crystalline form recovered (XRD): converted to crystalline form 2
[2]; tetrahydrofuran (THF)
  crystalline form recovered (XRD): to crystalline form 3
[3]; 0.5 hours
  concentration (solubility in water): 0.19 µg/mL
[3]; 4 hours
  concentration (solubility in water): 0.26 µg/mL
[5]; 1% Tween 80
  Solubility: 20 µg/mL (≈ 45.5 µM)
[5]; 1% sodium lauryl sulfate
  Solubility: 580 µg/mL (≈ 1320 µM)
[5]; 2% sodium lauryl sulfate
  Solubility: 950 µg/mL (≈ 2160 µM)
[5]; PEG 400, organic solvent or mixture, thermodynamic from solid, PEG 400, read-out: Solubility
  Solubility: 2670 µg/mL (≈ 6080 µM)
[5]; acetonitrile
  Solubility: 270 µg/mL (≈ 614 µM)
[5]; aqueous solution with pH of 1.0-7.5
  Solubility: 0.0048 to 0.04 µg/mL
[5]; ethanol, organic solvent or mixture, thermodynamic from solid, ethanol, read-out: Solubility
  Solubility: 1940 µg/mL (≈ 4410 µM)
[5]; glycerin
  Solubility: 120 µg/mL (≈ 273 µM)
[5]; methanol
  Solubility: 3500 µg/mL (≈ 7960 µM)
[6]
  Internal dissolution rate: 0.0062 mg/(min · cm^2)
[7]; female, Sprague Dawley, plasma, po, female 1, read-out: AUC(0-t)
  AUC(0-t): 4.34 µg·h/mL
[7]; female, Sprague Dawley, plasma, po, female 1, read-out: Cmax
  Cmax: 0.317 µg/mL
[7]; oral 10 mg/kg, average value
  AUC(0-t): 3.3209 µg·h/mL
  Cmax: 0.3138 µg/mL
[7]; oral 10 mg/kg, female 2
  AUC(0-t): 3.8992 µg·h/mL
  Cmax: 0.4514 µg/mL
[7]; oral 10 mg/kg, female 3
  AUC(0-t): 7.8506 µg·h/mL
  Cmax: 0.6146 µg/mL
[7]; oral 10 mg/kg, male 1
  AUC(0-t): 1.5571 µg·h/mL
  Cmax: 0.2044 µg/mL
[7]; oral 10 mg/kg, male 2
  AUC(0-t): 0.925 µg·h/mL
  Cmax: 0.1147 µg/mL
[7]; oral 10 mg/kg, male 3
  AUC(0-t): 1.3493 µg·h/mL
  Cmax: 0.1804 µg/mL

## Cc1[nH]c(/C=C2\C(=O)Nc3ccc(F)cc32)c(C)c1C(=O)N[C@H]1CCN(C(=O)N(C)C)C1 [crystalline form 6, 5-[5-fluoro-2-oxo-1,2-dihydro-indole-(3Z)-ylidenemethyl]-2,4-dimethyl-1H-pyrrole-3-carboxylic acid ((S)-1-dimethylcarbamoyl-pyrrolidin-3-yl)-amide]
[1]; 0 day (starting sample)
  HPLC Purity %: 99.09%
  HPLC Maximum single impurity %: 0.80 (4.73) %
[1]
  crystalline form and melting point by XRD and DSC: substantially unchanged
[1]; sealed, 80° C./24 h
  HPLC Purity %: 99.12%
  HPLC Maximum single impurity %: 0.78 (4.73) %
[3]; 0.5 hours
  concentration (solubility in water): 0.29 µg/mL
[3]; 4 hours
  concentration (solubility in water): 0.37 µg/mL

## CCN(CC)CCNC(=O)c1c(C)[nH]c(/C=C2\C(=O)Nc3ccc(F)cc32)c1C [Sunitinib, reference compound]
[8]
  content in Brain: 333.9
  content in Heart: 3,881.2
  content in Kidney: 14,852.0
  content in Liver: 14,816.6
  content in Lung: 15,713.5
  content in Muscle: 1,483.2
  content in Plasma: 261.3
  content in Tumor: 27,137.2

## Cc1[nH]c(/C=C2\C(=O)Nc3ccc(F)cc32)c(C)c1C(=O)N[C@H]1CCN(C(=O)N(C)C)C1 [crystalline form 7, 5-[5-fluoro-2-oxo-1,2-dihydro-indole-(3Z)-ylidenemethyl]-2,4-dimethyl-1H-pyrrole-3-carboxylic acid ((S)-1-dimethylcarbamoyl-pyrrolidin-3-yl)-amide]
[1]; 0 day (starting sample)
  HPLC Purity %: 99.28%
  HPLC Maximum single impurity %: 0.58 (4.73) %
[1]
  crystalline form and melting point by XRD and DSC: substantially unchanged
[1]; sealed, 80° C./24 h
  HPLC Purity %: 98.70%
  HPLC Maximum single impurity %: 1.19 (4.73) %
[2]; [9]
  crystalline form recovered (XRD): converted to crystalline form 2
[2]; tetrahydrofuran (THF)
  crystalline form recovered (XRD): to crystalline form 3
[3]; 0.5 hours
  concentration (solubility in water): 0.52 µg/mL
[3]; 4 hours
  concentration (solubility in water): 0.61 µg/mL
